The record followed here is paper PMC8966731 (2022).

Bridge positions count the residues as written; N and C are the ends. Square brackets hold non-standard residues; d marks the D form.

The series concerns SARS-CoV-2 M^pro. As to conditions: 37 °C, up to 1 h.

Turning to “AcyLQYAVLRHKRREC ({CH2CO}-[dY]LQYAVLRHKRREC-NH2; thioether N-14; SMILES CC(C)C[C@@H]1NC(=O)[C@H](C(C)C)NC(=O)[C@H](C)NC(=O)[C@H](Cc2ccc(O)cc2)NC(=O)[C@H](CCC(N)=O)NC(=O)[C@H](CC(C)C)NC(=O)[C@@H](Cc2ccc(O)cc2)NC(=O)CSC[C@@H](C(N)=O)NC(=O)[C@H](CCC(=O)O)NC(=O)[C@H](CCCNC(=N)N)NC(=O)[C@H](CCCNC(=N)N)NC(=O)[C@H](CCCCN)NC(=O)[C@H](Cc2c[nH]cn2)NC(=O)[C@H](CCCNC(=N)N)NC1=O)”, the cleaved bond result is on record as “Gln3-Tyr4, minor, 1 h”.
